This assay relates to alopecia in mice. Nature of the assay: Animal experiment: therapeutic effect on alopecia in bilaterally ovariectomized mice after oral administration. The assay is classed as in vivo. To be noted: for Cured / Ineffective / Ameliorated: number of mice of 10 per group; for Cured / Ineffective / Ameliorated / Total effective rate (%) / cure rate / back hair of mice after administration (FIGS. 3, 8 and 9): ovariectomized female mice, oral 10 mg/kg/day, 4 weeks; for Cured: cured = no difference with the normal group; for Ineffective: no difference from the model group; for Ameliorated: significant difference from the model group; for Total effective rate (%) / cure rate: 10 mice per group; for promoting hair follicle growth: summary statement; for back hair of mice after administration (FIGS. 3, 8 and 9): compared with the normal group (FIG. 1). As to the method:
Experiment method: 100 8-week-old female mice were divided into 10 groups with 10 mice in each group. They were randomly divided into a normal group, a model group and administration groups. The mice in the model group and the administration groups were fasted overnight and subjected to bilateral ovariectomy after anesthesia with 0.1 ml of 10% chloral hydrate. After the bilateral ovariectomy, penicillin injection 0.1 ml/per mouse was injected once a day for seven times to prevent infection. After 4 weeks of modeling, the experiment was carried out by oral administration. The medicament was prepared with normal saline, and administered 10 mg/kg/day to each mouse in the administration groups. The normal group and model group were given only normal saline. After 4 weeks of administration, the hair on the back of the mice was observed.
Cured: Alopecia was completely cured, with no difference with the normal group.
Ameliorated: Alopecia was ameliorated, with significant difference from the model group, but small difference from the normal group.
Ineffective: Alopecia was not ameliorated, with no difference from the model group.

In the case of `CCOC(=O)c1sc(NC(=O)/C(=N/Nc2ccccc2C(=O)OC)C(C)=O)nc1C` [Compound 4], the Cured is 8, the Ineffective was 0, the Ameliorated amounted to 2 and the “promoting hair follicle growth” value is on record as “significant advantages”. The “Total effective rate (%)” value (10 mg/kg/day) is given as 100%.
For `CCOC(=O)c1sc(NC(=O)/C(=N/Nc2ccc(F)cc2C(=O)O)C(C)=O)nc1C` [Compound 10], the Cured was 2, the Ineffective is recorded as 5, the Ameliorated turned out to be 3 and the “Total effective rate (%)” value came out at 50%.
In the same order, the values of `CCOC(=O)c1sc(NC(=O)/C(=N/Nc2c(C#N)cccc2C(=O)O)C(C)=O)nc1C` [Compound 12] are 8, 1, 1 and 90%.
Consider `CC(=O)/C(=N\Nc1ccccc1C(=O)O)C(=O)Nc1ccccc1` [Compound 24], for which the Cured is reported as 10, the Ineffective is 0, the Ameliorated stood at 0 and the cure rate is recorded as 100%. Moreover, the “back hair of mice after administration (FIGS. 3, 8 and 9)” value is reported as “completely recovered”; the “promoting hair follicle growth” value is recorded as “significant advantages”. Further, the “Total effective rate (%)” value (10 mg/kg/day) came to 100%.
`CC(=O)/C(=N\Nc1ccccc1C(=O)O)C(=O)N1CCOCC1` [Compound 28] yielded a Cured of 10, an Ineffective of 0, an Ameliorated of 0 and a cure rate of 100%. In addition, the “back hair of mice after administration (FIGS. 3, 8 and 9)” value was “completely recovered”; the “promoting hair follicle growth” value is “significant advantages”. The “Total effective rate (%)” value (10 mg/kg/day) came to 100%.
As to `CC(=O)/C(=N\Nc1ccccc1C(=O)O)C(=O)Nc1cccc(O)n1` [Compound 30], the Cured is 4, the Ineffective stood at 3, the Ameliorated amounted to 3 and the “Total effective rate (%)” value is on record as 70%.

The record behind these values is US12479809B2, “Hydrazone amide derivative and application thereof in preparation of medicaments for preventing and treating alopecia” (SHENZHEN CELL INSPIRE PHARMACEUTICAL DEVELOPMENT CO., LTD., priority 2019, dated 2025).
